For experiment [1], the system named is Zucker Diabetic Fatty (ZDF) rats (ZDF/Crl-Lepr^fa). Briefly: oral glucose tolerance test in overnight fasted ZDF rats (1st Example). The class given is in vivo, rat. The following applies: male ZDF rats. The protocol: According to a first example an oral glucose tolerance test is performed in overnight fasted 9-weeks old male Zucker Diabetic Fatty (ZDF) rats (ZDF/Crl-Lepr^fa). A pre-dose blood sample is obtained by tail bleed. Blood glucose is measured with a glucometer, and the animals are randomized for blood glucose (n=5/group). Subsequently, the groups receive a single oral administration of either vehicle alone (0.5% aqueous hydroxyethylcellulose containing 3 mM HCl and 0.015% Polysorbat 80) or vehicle containing either the glucopyranosyl-substituted benzene derivative or the DPP IV inhibitor or the combination of the glucopyranosyl-substituted benzene derivative with the DPP IV inhibitor. The animals receive an oral glucose load (2 g/kg) 30 min after compound administration. Blood glucose is measured in tail blood 30 min, 60 min, 90 min, 120 min, and 180 min after the glucose challenge. Glucose excursion is quantified by calculating the reactive glucose AUC. The data are presented as mean±SEM. The two-sided unpaired Student t-test is used for statistical comparison of the control group and the active groups.
“Cpd. A” is the DPP IV inhibitor 1-[(4-methyl-quinazolin-2-yl)methyl]-3-methyl-7-(2-butyn-1-yl)-8-(3-(R)-amino-piperidin-1-yl)-xanthine at a dose of 1 mg/kg. Cpd. […]

Experiment [2] deals with Sprague Dawley rats (Crl:CD(SD)). In words: oral glucose tolerance test in overnight fasted Sprague Dawley rats (3rd Example). Format: in vivo, rat. The following applies: male Sprague Dawley rats, not statistically significant. The protocol:
(§1) According to a second example an oral glucose tolerance test is performed in overnight fasted male Sprague Dawley rats (Crl:CD(SD)) with a body weight of about 200 g. A pre-dose blood sample is obtained by tail bleed. Blood glucose is measured with a glucometer, and the animals are randomized for blood glucose (n=5/group). Subsequently, the groups receive a single oral administration of either vehicle alone (0.5% aqueous hydroxyethylcellulose containing 0.015% Polysorbat 80) or vehicle containing either the glucopyranosyl-substituted benzene derivative or the DPPIV inhibitor or the combination of the glucopyranosyl-substituted benzene derivative with the DPPIV inhibitor. The animals receive an oral glucose load (2 g/kg) 30 min after compound administration. Blood glucose is measured in tail blood 30 min, 60 min, 90 min, and 120 min after the glucose challenge. Glucose excursion is quantified by calculating the reactive glucose AUC. The data are presented as mean±S.E.M. Statistical comparisons are conducted by Student's t test.
In a third example the same experimental setting is employed as in the second example as described herein before. The glucopyranosyl-substituted benzene derivative (9), i.e. 1-chloro-4-(β-D-glucopyranos-1-yl)-2-[4-((S)-tetrahydrofuran-3-yloxy)-benzyl]-benzene, is administered at a dose of 3 mg/kg. […]

Experiment [3] shares this test system. Briefly: oral glucose tolerance test in overnight fasted Sprague Dawley rats (2nd Example). Format: in vivo, rat. Particulars: male Sprague Dawley rats, not statistically significant. As to the method:
as §1
“Cpd. A” is the glucopyranosyl-substituted benzene derivative (9), i.e. 1-chloro-4-(β-D-glucopyranos-1-yl)-2-[4-((S)-tetrahydrofuran-3-yloxy)-benzyl]-benzene, administered at a dose of 3 mg/kg. The DPPIV inhibitor saxagliptin is administered at a dose of 0.3 mg/kg. […]

For experiment [4] the following is noted: in the diabetic, metformin on its own; cited from earlier work.
Setting [5] is: single oral dose 3 mg/kg 30 min before glucose load 2 g/kg.

Consider `CC#CCn1c(N2CCC[C@@H](N)C2)nc2c1c(=O)n(Cc1nc(C)c3ccccc3n1)c(=O)n2C` [Cpd. A, 1-[(4-methyl-quinazolin-2-yl)methyl]-3-methyl-7-(2-butyn-1-yl)-8-(3-(R)-amino-piperidin-1-yl)-xanthine], for which the “reduction of glucose excursion (reactive glucose AUC)” value (“reduction of glucose excursion” for short) in experiment [1] (single oral dose 1 mg/kg 30 min before oral glucose load 2 g/kg) was found to be 56%. On to `N[C@@H](CC(=O)N1CCn2c(nnc2C(F)(F)F)C1)Cc1cc(F)c(F)cc1F` [sitagliptin, (3R)-3-amino-1-[3-(trifluoromethyl)-5,6,7,8-tetrahydro-5H-[1,2,4]triazolo[4,3-a]pyrazin-7-yl]-4-(2,4,5-trifluorophenyl)butan-1-one, reference compound], for which the “reduction of glucose excursion” value in experiment [2] (single oral dose 10 mg/kg 30 min before glucose load 2 g/kg) worked out at 16%. Take `OC[C@H]1O[C@@H](c2ccc(Cl)c(Cc3ccc(O[C@H]4CCOC4)cc3)c2)[C@H](O)[C@@H](O)[C@@H]1O` [(9), 1-chloro-4-(β-D-glucopyranos-1-yl)-2-[4-((S)-tetrahydrofuran-3-yloxy)-benzyl]-benzene]: the “reduction of glucose excursion” value in experiment [2] (setting [5]) turned out to be 21%; in experiment [1] (single oral dose 3 mg/kg 30 min before oral glucose load 2 g/kg), 51%; in experiment [3] (setting [5]), 21%.

`N#C[C@@H]1C[C@@H]2C[C@@H]2N1C(=O)[C@@H](N)C12CC3CC(CC(O)(C3)C1)C2` [saxagliptin, (1S,3S,5S)-2-{(2S)-2-amino-2-(3-hydroxyadamantan-1-yl)acetyl}-2-azabicyclo[3.1.0]hexane-3-carbonitrile, reference compound]: the “reduction of glucose excursion” value in experiment [3] (single oral dose 0.3 mg/kg 30 min before glucose load 2 g/kg) is 12%. Turning to `CN(C)C(=N)N=C(N)N` [metformin], the “average improvement in the HbA1c value” in experiment [4] is given as 1.0-1.5%.
